Results reported in paper PMC2658056 (The Journal of Biological Chemistry, 2009).
Residue numbers refer to the chain shown, from its start. pIC50, pKi: −log10 of the molar value. In brackets after ≈: the same amount, converted by molar mass.

Key:
[1] = target: T1, W54A/C89A/C186A mutant of mouse L-PGDS (Mus musculus, UniProt O09114, C186A/C89A/W54A); assay: Intrinsic tryptophan fluorescence quenching assay, W54A/C89A/C186A mutant; assay type: binding
T1 sequence (O09114 23-189 W54A/C89A/C186A): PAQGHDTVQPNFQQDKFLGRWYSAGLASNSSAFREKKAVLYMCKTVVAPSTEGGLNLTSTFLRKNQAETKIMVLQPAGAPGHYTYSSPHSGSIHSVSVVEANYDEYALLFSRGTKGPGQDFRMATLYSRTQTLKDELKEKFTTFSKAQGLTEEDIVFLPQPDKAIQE

[2] = target: T2, C89A/C186A mutant of mouse L-PGDS (Mus musculus, UniProt O09114, C186A/C89A); assay: Intrinsic tryptophan fluorescence quenching assay, C89A/C186A mutant; assay type: binding
T2 sequence (O09114 23-189 C89A/C186A): T1 sequence (O09114 23-189 W54A/C89A/C186A) with A32W

brain of H-PGDS KO mice = assay: PG production by stab wound brain injury
[3] = target: T3, recombinant mouse L-PGDS C89A/C186A mutant (Mus musculus, UniProt O09114, C186A/C89A); assay: biochemical
T3 sequence (O09114 23-189 C89A/C186A): T1 sequence (O09114 23-189 W54A/C89A/C186A) with A32W

[4] = test system: H-PGDS-expressing human megakaryoblastic MEG-01S cells; assay: PGD2 production by A23187-stimulated MEG-01S cells; assay type: cell-based
human L-PGDS TG mice = assay: L-PGDS-mediated allergic airway inflammation; assay type: in vivo
H-PGDS = H-PGDS (Homo sapiens, UniProt O60760); assay: H-PGDS enzyme activity assay; assay type: biochemical; settings: AT-56 up to 250 μM
H-PGDS, sequence (O60760 whole entry, species assumed): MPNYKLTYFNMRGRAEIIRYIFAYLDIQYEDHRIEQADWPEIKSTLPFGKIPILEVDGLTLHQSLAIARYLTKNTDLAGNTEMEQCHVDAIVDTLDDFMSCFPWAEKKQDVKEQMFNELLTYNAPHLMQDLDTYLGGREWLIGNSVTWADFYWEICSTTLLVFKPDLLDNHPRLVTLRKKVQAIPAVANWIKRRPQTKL

[5] = test system: L-PGDS-expressing human medulloblastoma TE-671 cells; assay: PG production by A23187-stimulated TE-671 cells; assay type: cell-based
[6] = Pharmacokinetics of AT-56 in plasma; assay type: in vivo, C57BL/6 mice; settings: male, C57BL/6, mouse; for Tmax: mice
COX-1 = COX-1 (Homo sapiens, UniProt P23219); assay: COX-1 enzyme activity assay; assay type: biochemical; settings: AT-56 up to 250 μM
COX-1, sequence (P23219 24-599): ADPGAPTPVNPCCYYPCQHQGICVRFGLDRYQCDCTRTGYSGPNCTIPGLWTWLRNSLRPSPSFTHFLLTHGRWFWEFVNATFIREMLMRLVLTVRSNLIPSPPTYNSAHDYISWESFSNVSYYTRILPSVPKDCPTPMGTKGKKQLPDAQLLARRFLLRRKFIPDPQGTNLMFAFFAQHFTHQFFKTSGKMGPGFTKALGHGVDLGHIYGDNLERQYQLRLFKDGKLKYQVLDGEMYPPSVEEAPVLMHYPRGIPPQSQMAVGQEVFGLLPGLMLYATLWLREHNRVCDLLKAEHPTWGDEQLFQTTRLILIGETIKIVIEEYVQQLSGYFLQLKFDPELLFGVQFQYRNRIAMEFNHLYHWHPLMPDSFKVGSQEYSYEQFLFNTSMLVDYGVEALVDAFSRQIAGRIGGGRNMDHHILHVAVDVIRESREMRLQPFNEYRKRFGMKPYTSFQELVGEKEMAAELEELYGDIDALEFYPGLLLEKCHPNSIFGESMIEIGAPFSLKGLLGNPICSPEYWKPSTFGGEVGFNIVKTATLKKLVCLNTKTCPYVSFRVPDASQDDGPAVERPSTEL

[7] = Acute toxicity after oral administration; assay type: in vivo; settings: dose of 100 mg/kg
[8] = Maximum solubility in aqueous solution; assay type: physicochemical
COX-2 = target: T4, COX-2 (Homo sapiens, UniProt P35354); assay: COX-2 enzyme activity assay; assay type: biochemical; settings: AT-56 up to 250 μM
T4 sequence (P35354 18-604): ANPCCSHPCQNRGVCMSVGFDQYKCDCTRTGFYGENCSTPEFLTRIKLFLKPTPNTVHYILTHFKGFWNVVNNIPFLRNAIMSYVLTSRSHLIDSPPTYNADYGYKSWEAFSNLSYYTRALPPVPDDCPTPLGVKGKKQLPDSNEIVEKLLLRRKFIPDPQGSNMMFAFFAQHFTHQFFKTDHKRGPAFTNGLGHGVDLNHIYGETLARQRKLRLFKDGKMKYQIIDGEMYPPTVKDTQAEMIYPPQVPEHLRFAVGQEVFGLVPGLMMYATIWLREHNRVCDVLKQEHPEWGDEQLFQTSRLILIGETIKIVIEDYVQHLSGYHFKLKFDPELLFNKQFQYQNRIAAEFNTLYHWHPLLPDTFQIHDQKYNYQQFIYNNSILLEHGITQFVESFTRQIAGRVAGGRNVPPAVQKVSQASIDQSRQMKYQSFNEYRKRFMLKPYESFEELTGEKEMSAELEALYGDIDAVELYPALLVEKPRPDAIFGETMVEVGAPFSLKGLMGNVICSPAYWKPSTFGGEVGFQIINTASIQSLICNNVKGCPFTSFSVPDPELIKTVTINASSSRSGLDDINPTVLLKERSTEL

m-PGES-1 = target: T5, m-PGES-1 (Homo sapiens, UniProt O14684); assay: m-PGES-1 enzyme activity assay; assay type: biochemical; settings: AT-56 up to 250 μM
T5 sequence (O14684 1-152): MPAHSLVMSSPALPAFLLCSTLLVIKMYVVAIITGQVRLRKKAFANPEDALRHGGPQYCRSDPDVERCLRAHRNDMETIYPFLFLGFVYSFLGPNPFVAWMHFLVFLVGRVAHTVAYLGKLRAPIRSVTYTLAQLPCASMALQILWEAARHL

[9] = 0 to 30 μM AT-56, 5 μM A23187, enzyme immunoassay

For `CC1=C(/C=C/C(C)=C/C=C/C(C)=C\C(=O)O)C(C)(C)CCC1` [13-cis-retinoic acid, reference compound], the “tryptophan fluorescence intensity decreased to” value ([1]; 10 μM 13-cis-retinoic acid) was under 10%, the “tryptophan fluorescence intensity decreased to” value ([2]; 10 μM 13-cis-retinoic acid, absence of AT-56) was “about 8%” and the “tryptophan fluorescence intensity decreased to” value ([2]; 10 μM 13-cis-retinoic acid, in the presence of 10 μM AT-56) was under 10%.
With `C1=Cc2ccccc2C(=C2CCN(CCCCc3nn[nH]n3)CC2)c2ccccc21` [AT-56, 4-dibenzo[a,d]cyclohepten-5-ylidene-1-[4-(2H-tetrazol-5-yl)-butyl]-piperidine] the “total amount of PGD2 in the brain decreased to” value (brain of H-PGDS KO mice; 30 mg/kg AT-56 orally 1 h before the injury) was 40%, the “amount of PGE2 in the brain” value (brain of H-PGDS KO mice; AT-56 orally 1–30 mg/kg) was “not significantly changed” and the “amount of PGF2α in the brain” value (brain of H-PGDS KO mice; AT-56 orally 1–30 mg/kg) was “not significantly changed”. The pIC50 [3] was 4.02, the pKi [3] was 4.12 and the “effect on PGD2 production” value [4] was “no effect”. For the same compound, the fluorescence quenching ([1]; 10 μM AT-56) was “did not show the fluorescence quenching”, the “total cells in BALF, actual number” value (human L-PGDS TG mice; 1 mg/kg AT-56 p.o.) was 8.7 ± 1.9 × 10^4 cells/ml and the “total cells in BALF, actual number” value (human L-PGDS TG mice; 10 mg/kg AT-56 p.o.) was 2.7 ± 0.4 × 10^4 cells/ml. The “effect on H-PGDS activity” value (H-PGDS) was “not significantly affected”, the “effect on PGE2 production” value [5, 9] was “without affecting” and the “effect on PGF2α production” value [5, 9] was “without affecting”. The PGD2 biosynthesis ([5]; 10 μM AT-56, A23187) was “only a base level”, the arachidonic acid release ([5]; 10 μM AT-56, A23187) was “without changing” and the pIC50 ([5]; Homo sapiens, TE-671, read-out: IC50, PGD2 production) was about 5.52. For the same compound, the “production of other 14C-labeled metabolites” value ([5]; [1-14C]arachidonic acid-prelabeled cells, AT-56 up to 100 μM) was “not inhibited”, the AUC ([6]; iv, 2 mg/kg) was 1280 ng·h/mL and the C0 ([6]; iv, 2 mg/kg) was 860 ng/mL. For the same compound, the half-life ([6]; iv, 2 mg/kg) was 2.35 h, the Tmax ([6]; iv, 2 mg/kg) was 0.08 h and the AUC ([6]; po, 10 mg/kg) was 8950 ng·h/mL. The Cmax ([6]; po, 10 mg/kg) was 2150 ng/mL, the bioavailability ([6]; po, 10 mg/kg) was 82% and the concentration at 12 h ([6]; po, 10 mg/kg) was under 0.4 ng/mL. The half-life ([6]; po, 10 mg/kg) was 1.71 h, the Tmax ([6]; po, 10 mg/kg, per os) was 0.5 h and the “effect on COX-1 activity” value (COX-1) was “not significantly affected”. The acute toxic effects [7] was “did not detect any acute toxic effects”, the solubility ([8]; 10% DMSO) was 260 µM (≈ 103 µg/mL) and the solubility ([8]; saline containing 1% DMSO) was 90 µM (≈ 35.8 µg/mL). The “effect on COX-2 activity” value (COX-2) was “not significantly affected”, the “effect on binding of 13-cis-retinoic acid to L-PGDS” value ([2]; 10 μM AT-56) was “did not inhibit the binding” and the “tryptophan fluorescence intensity decreased to” value ([2]; 10 μM AT-56) was “about 60%”. The “effect on m-PGES-1 activity” value (m-PGES-1) was “not significantly affected”.
In the case of `c1ccc(C(OC2CCN(CCCc3nnn[nH]3)CC2)c2ccccc2)cc1` [HQL-79, 4-benzhydryloxy-1-(3-(1H-tetrazol-5-yl)-propyl)-piperidine, reference compound], the “effect on PGD2 production” value [4] was “inhibited PGD2 production” and the “effect on PGD2 production” value ([5]; TE-671 cells) was “but not from TE-671 cells”.
